Measurements from patent US20220265641A1, “SEROTONERGIC AGENT AND 5-HT1A-RECEPTOR ANTAGONIST” (ATLAS PHARMACEUTICALS BV, priority 2019, published 2022).

Assays:
[1] = test system: time to first ejaculation of male rats; experiment: Time until first ejaculation in male rats, 5-HT1A-receptor antagonist in conjunction with serotonergic agent (Example 3); format: in vivo; conditions: antagonist in conjunction with Citalopram, Fluoxetine, Ifoxetine, Paroxetine or Zimelidine shortly before sexual activity, relative to the rat's own average without treatment
Protocol: In a study with male rats, 10 different 5-HT1A-receptor antagonists are administered in conjunction with five different serotonergic agents shortly before sexual activity.

5-HT1A receptor = conditions: cited from earlier work
male rat sexual behavior = experiment: Male rat sexual behavior model (sexually trained males, 30-min access to receptive females); format: in vivo; conditions: for behavioral effects on sexual behavior, antagonist alone: separate experiments, not shown
From the text: A model of sexual behavior in male rats was developed that is predictive of SSRI-effects on human male sexual behavior (Bijlsma et al. 2014; Olivier et al. 2006; 2017). In this male rat sexual behavior model, SSRIs inhibit sexual behavior, but only upon chronic administration thereby mimicking and modeling the SSRI effects in human males.
Male rats were sexually trained till they obtained a stable sexual performance (on average 2 ejaculations per 30-min, the standard testing duration). Animals were injected intraperitoneally 30-min before testing after which males had 30 min access to the females that were behaviorally sexually receptive. A trained researcher scored the sexual behavior of the males according to published and accepted methods (Chan et al. 2010).

5-HT1A-receptor = biological target: T1, 5-HT1A-receptor (Homo sapiens, UniProt P08908); conditions: healthy human volunteers, cited from earlier work
T1 construct: host or cells: brain of healthy human volunteers (in vivo PET)
T1 sequence (P08908 1-422): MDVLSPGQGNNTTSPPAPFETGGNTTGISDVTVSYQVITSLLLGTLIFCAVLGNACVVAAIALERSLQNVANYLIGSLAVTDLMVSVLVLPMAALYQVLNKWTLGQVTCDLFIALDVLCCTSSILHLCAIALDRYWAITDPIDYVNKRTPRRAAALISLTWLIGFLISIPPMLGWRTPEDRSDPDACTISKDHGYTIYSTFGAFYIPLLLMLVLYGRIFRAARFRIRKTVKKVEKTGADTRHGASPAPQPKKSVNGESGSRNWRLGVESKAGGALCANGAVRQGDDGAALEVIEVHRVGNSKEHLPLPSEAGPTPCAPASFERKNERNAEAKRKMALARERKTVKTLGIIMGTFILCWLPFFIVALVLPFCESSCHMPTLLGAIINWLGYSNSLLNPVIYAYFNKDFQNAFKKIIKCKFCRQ

Structure (SMILES): C=CCc1ccccc1OCC(O)CNC(C)C (centres unmarked) [Alprenolol]
- Potential average increase in time to first ejaculation (%) [1]: 75%

Structure (SMILES): O=C1c2ccccc2S(=O)(=O)N1CCCCN1CCN(c2cc(Cl)cc3c2OCCO3)CC1 [DU125530, 2-[4-[4-(7-chloro-2,3-dihydro-1,4-benzodi-oxin-5-yl)-1-piperazinyl]butyl]-1,2-benzisothiazol-3(2H)-one-1,1-dioxide]
- 5-HT1A receptor antagonistic activities in vitro and in vivo (5-HT1A receptor; Mos et al. 1997): selective 5-HT1A receptor antagonistic activities
- biological activity given on itself (5-HT1A receptor; given on itself, Joordens et al. 1997): without biological activity
- 5-HT1A receptor antagonistic activity in several animal models (5-HT1A receptor; several animal models): nice and reliable 5-HT1A receptor antagonistic activity
- behavioral effects on sexual behavior, antagonist alone (male rat sexual behavior; DU125530 alone at doses up to 20 mg/kg): no behavioral effects on sexual behavior
- effect on male rat sexual behavior (male rat sexual behavior; acute DU125530 20 mg/kg in combination with acute paroxetine 5 mg/kg, intraperitoneally 30 min before testing): strongly inhibited male rat sexual behavior
- effects when administered alone (male rat sexual behavior; administered alone): no effects
- pharmacological activity when combined with paroxetine (male rat sexual behavior; combined with paroxetine): pharmacologically active
- safety (male rat sexual behavior; rat, in vivo): safe
- Potential average increase in time to first ejaculation (%) [1]: 254%
- 5-HT1A-receptor occupancy (5-HT1A-receptor; 10 to 40-mg daily dose range, 2 h post the last dose, dose-dependent): 0-72%
- side effects (5-HT1A-receptor; 10 to 40-mg daily dose range): minor side effects
- tolerability (5-HT1A-receptor; 10 to 40-mg daily dose range): well tolerated
- correlation of occupancy with plasma levels (5-HT1A-receptor): correlated highly

Structure (SMILES): c1ccc(C(c2ccccc2)N2CCN(CCCC3(c4ccccc4)OCCO3)CC2)cc1 [Dotarizine]
- Potential average increase in time to first ejaculation (%) [1]: 67%

Structure (SMILES): CSc1ccc2c(c1)C(N1CCN(C)CC1)Cc1ccccc1S2 (centres unmarked) [Methiothepin]
- Potential average increase in time to first ejaculation (%) [1]: 97%

Structure (SMILES): OC(CNCC(O)C1CCc2cc(F)ccc2O1)C1CCc2cc(F)ccc2O1 (centres unmarked) [Nebiovolol]
- Potential average increase in time to first ejaculation (%) [1]: 95%

Structure (SMILES): CC(C)NCC(O)COc1cccc2[nH]ccc12 (centres unmarked) [Pindolol]
- Potential average increase in time to first ejaculation (%) [1]: 46%

Structure (SMILES): CC(C)NCC(O)COc1cccc2ccccc12 (centres unmarked) [Propranolol]
- Potential average increase in time to first ejaculation (%) [1]: 87%

Structure (SMILES): Cc1nc2n(c(=O)c1CCN1CCC(c3noc4cc(F)ccc34)CC1)CCCC2 [Risperidone]
- Potential average increase in time to first ejaculation (%) [1]: 102%

Structure (SMILES): O=C(CCCN1CCC2(CC1)C(=O)NCN2c1ccccc1)c1ccc(F)cc1 [Spiperone]
- Potential average increase in time to first ejaculation (%) [1]: 80%

Structure (SMILES): COc1ccccc1N1CCN(CCN(C(=O)C2CCCCC2)c2ccccn2)CC1 [WAY100,635, reference compound]
- effect on male rat sexual behavior (male rat sexual behavior; WAY100,635 (0.3 mg/kg) in combination with paroxetine (5 mg/kg), own data, compared with DU125530 + paroxetine): comparable inhibition
- behavioral effects on sexual behavior, antagonist alone (male rat sexual behavior; WAY100,635 alone at doses up to 1 mg/kg, IP): no behavioral effects on sexual behavior
